This is an account of results in patent US6776996B2, “Pesticidal matrices” (priority 1997, dated 2004).

This assay deals with H. virescens. The experiment in a line: Field evaluation against tobacco budworms on tobacco in North Carolina. In kind it is in vivo. As to conditions: 0.75 lb of ai/acre. How it is done:
A field evaluation is conducted on tobacco grown near Clayton, N.C. A wettable powder composition of this invention (composition 46) at 2×10^11, 5×10^11, and 8×10^11 bodies/acre, Bacillus thuringiensis (DIPEL® 2X, Abbott Laboratories) at 1.0 lb wettable powder (WP)/acre, and acephate (ORTHENE® 75SP, available from Valent USA, Walnut Creek, Calif.) at 0.75 lb active ingredient (ai)/acre are compared for efficacy against H. virescens. Biological materials are suspended in water containing an insect gustatory stimulant (PHEAST® available from […], Fresno, Calif.); aqueous dilutions of acephate contained no PHEAST®. Treatments and untreated check are replicated four times (small plots) in a randomized complete block design. By using fine-hair brushes, 1- to 2-day old laboratory-reared H. virescens are placed on the underside of leaves in each plot. Natural infestation of H. virescens also occurred at the test site. Treatments are applied to tobacco about 2 hours before each artificial larval infestation on days 1 and 8. Treatments are applied with a tractor-mounted, CO2-pressurized boom sprayer which is calibrated to deliver 25 gallons/acre through a single D2-33 nozzle centered over each tobacco row. Boom pressure during application is 60 lb/in^2.
At 2 and 5 days after first application and 5 and 9 days after second application, live H. virescens are counted on 20 plants in each plot. Additionally, visual estimate of leaf damage caused by larval feeding is made 14 days after the second application using the rating scale shown below.

Take `COP(=O)(NC(C)=O)SC` (centres unmarked) [Acephate, acephate]: the “Mean Number of Live Larvae per 20 Plants” value worked out at 6.0 (Day of Test 3), 5.8 (Day of Test 8), 1.2 (Day of Test 13) and 0.8 (Day of Test 17). In addition, the “Mean Plant Injury on Day 22 of Test” value (rating scale 0 (No Damage) to 4 (Severe Damage)) worked out at 0.2.
